Data on three molecules can be found in US20170137753A1, “DELIVERY SYSTEMS COMPRISING MALODOR REDUCTION COMPOSITIONS” (The Procter & Gamble Company, priority 2014, published 2017).

This experiment is described as follows: Blocker Index (BI), expert graders, malodorous fabric swatch treated with test material. The source says: Blocker materials suitable for use in consumer products of the present invention are chosen for their ability to decrease malodor, while not interfering with perception of a fragrance. Material selection is done by assigning two indices to a test sample material from two reference scales in order to rank odor strengths. The two reference scales are the Fragrance Fidelity Index (FFI) scale and the Blocker Index (BI) scale. The FFI ranks the ability of the test sample material to impart a perceivable odor which could cause interference when combined with another fragrance and the BI ranks the ability of the test sample material to reduce malodor perception. The two methods for assigning the indices to a test sample on the FFI and the BI reference scales are given below.
The first step in the method for assigning a BI to a test sample material on the BI reference scale is to create the BI reference swatches. […] Fabric swatches for this test are white knit polycotton (4 inch×4 inch) swatches from EMC ordered as PC 50/50. The supplier is instructed to strip the swatches first, stripping involves washing twice with a fragrance-free detergent and rinsing three times.
The BI scale contains one clean swatch with no malodor applied. […] These solutions are pipetted to the middle of the swatches. […] After drying for 30 minutes in a vented hood, the swatches are wrapped in aluminum foil to prevent odor contamination to the treated swatch. A clean untreated swatch is also included as the lowest anchor point of reference for malodor strength on the BI scale. The BI reference scale swatches should be used within 0.5 to 12 hours and discarded after 12 hours. The swatches are used as scale anchor points when graders evaluate a test sample(s) and are assigned a Blocker Index (BI) as show in Table 12.
The perfumer/expert grader is asked to rank order swatches according to a scale between 0 and 3.
The reference swatches represent the 0, 1, 2, and 3 BIs on the BI reference scale, Table 12. The expert grader should familiarizes him/herself with the strength of the odor on the BI reference swatches by sniffing each one starting at 0 (the lowest odor strength) and ending at 3 (the highest odor strength). This should be done prior to evaluating the swatch treated with the test material.
To evaluate the BI, the test material is applied to a malodorous swatch to determine how well the test material blocks the malodor. […] After drying the malodorous swatch a known concentration of test material solution, between 1 ppm and 100 ppm is pipetted onto the malodorous swatch. […] It is sometimes necessary to evaluate several levels of the test material between about 1 and about 100 ppm to determine the BI.
At least two perfumers/expert graders are used to assign the BI to the test sample. […] The test sample swatch is assigned a BI at or between numbers on the BI in table.

The mark [1] stands for this setting: Conc 10 ppm test material on isovaleric acid swatch.
The mark [2] stands for this setting: Conc 50 ppm test material on isovaleric acid swatch.

Structures are written as SMILES.

`CC1CCC2(C(C)C)CC(C)OC2C1` (stereo not drawn) [4,8-dimethyl-1-(methylethyl)-7-oxybiciclo[4.3.0]nonane] registered a BI under setting [1] of 2.0 and a BI under setting [2] of 2.2.
On the same counts, the results for `CCC(=O)OC1CC2C3C=CCC3C1C2(C)C` (stereo not drawn) [8,8-dimethyl-3a,4,5,6,7,7a-hexahydro-1H-4,7-methanoinden-6-yl propionate] are 1.5 and 2.2.
As for `CC1(C)CCc2ccc(CCC=O)cc21` [Material 261, 3-(3,3-dimethyl-2,3-dihydro-1H-inden-5-yl)propanal], the BI was 1.5 (Conc 10 ppm test material on isovaleric acid swatch, listed as 1H-Indene-5-propanal, 2,3-dihydro-3 ,3-dimethyl-) and 2.7 (Conc 50 ppm test material on isovaleric acid swatch, listed as 1H-Indene-5-propanal, 2,3-dihydro-3 ,3-dimethyl-).
